“And” between values parts separate entries of the source, which are not always exact repeats. Identical values can stand only once. Inconclusive results and toxic doses are left out. Cut-off read from the data, not from the text of the source: active = T/C of 150% or more; inactive = T/C below 125%.
Tested on: L1210 leukemia ip in BDF1 mice, survival T/C
Experiment: NCI In Vivo Anticancer Drug Screen. Data for tumor model L1210 Leukemia (intraperitoneal) in B6D2F1 (BDF1) mice
Details: endpoint: mean survival time, higher = longer survival
Summary of the method: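 Transplantable tumor model; survival measured in treated vs vehicle control mice. Value = treated/control.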

[1] = dose: 50.0 mg/kg/injection, schedule: Q01DX001 (ip), vehicle: carboxymethylcellulose (CMC)
[2] = dose: 100.0 mg/kg/injection, schedule: Q01DX001 (ip), vehicle: carboxymethylcellulose (CMC)
[3] = dose: 200.0 mg/kg/injection, schedule: Q01DX001 (ip), vehicle: carboxymethylcellulose (CMC)
[4] = dose: 400.0 mg/kg/injection, schedule: Q01DX001 (ip), vehicle: carboxymethylcellulose (CMC)
[5] = dose: 100.0 mg/kg/injection, schedule: Q04DX002 (ip), vehicle: saline with Tween-80
[6] = dose: 200.0 mg/kg/injection, schedule: Q04DX002 (ip), vehicle: saline with Tween-80
[7] = dose: 400.0 mg/kg/injection, schedule: Q04DX002 (ip), vehicle: saline with Tween-80
[8] = dose: 100.0 mg/kg/injection, schedule: Q01DX009 (ip), vehicle: saline
[9] = dose: 200.0 mg/kg/injection, schedule: Q01DX009 (ip), vehicle: saline
[10] = dose: 100.0 mg/kg/injection, schedule: Q01DX001 (ip), vehicle: saline
[11] = dose: 200.0 mg/kg/injection, schedule: Q01DX001 (ip), vehicle: saline
[12] = dose: 400.0 mg/kg/injection, schedule: Q01DX001 (ip), vehicle: saline
[13] = dose: 75.0 mg/kg/injection, schedule: Q01DX001 (ip), vehicle: saline
[14] = dose: 12.5 mg/kg/injection, schedule: Q04DX002 (ip), vehicle: Klucel (hydroxypropylcellulose) (HPC)
[15] = dose: 25.0 mg/kg/injection, schedule: Q04DX002 (ip), vehicle: Klucel (hydroxypropylcellulose) (HPC)
[16] = dose: 50.0 mg/kg/injection, schedule: Q04DX002 (ip), vehicle: Klucel (hydroxypropylcellulose) (HPC)
[17] = dose: 100.0 mg/kg/injection, schedule: Q04DX003 (ip), vehicle: saline with Tween-80
[18] = dose: 200.0 mg/kg/injection, schedule: Q04DX003 (ip), vehicle: saline with Tween-80
[19] = dose: 400.0 mg/kg/injection, schedule: Q04DX003 (ip), vehicle: saline with Tween-80
[20] = dose: 100.0 mg/kg/injection, schedule: Q01DX009 (ip), vehicle: saline with Tween-80
[21] = dose: 200.0 mg/kg/injection, schedule: Q01DX009 (ip), vehicle: saline with Tween-80
[22] = dose: 400.0 mg/kg/injection, schedule: Q01DX009 (ip), vehicle: saline with Tween-80

Measured: T/C

Cc1c2c(c(C)c3c1[nH]c1ccccc13)CCN=C2
inactive: [1] 104 % of control | [2] 114 % of control | [3] 104 % of control | [4] 111 % of control

CCOC(=O)COc1c(C(=O)OC)cc([N+](=O)[O-])cc1[N+](=O)[O-]
inactive: [5] 104 % of control | [6] 97 % of control | [7] 90 % of control

CC(=O)Nc1ccc2c3c(ccc([N+](=O)[O-])c13)CC2
inactive: [8] 90 % of control | dose: 100.0 mg/kg/injection, schedule: Q04DX003 (ip), vehicle: saline 108 % of control | [9] 93 % of control | dose: 200.0 mg/kg/injection, schedule: Q04DX003 (ip), vehicle: saline 110 % of control | dose: 400.0 mg/kg/injection, schedule: Q01DX009 (ip), vehicle: saline 108 % of control | dose: 400.0 mg/kg/injection, schedule: Q04DX003 (ip), vehicle: saline 110 % of control

O=C(Cc1ccccn1)NCC(O)c1ccccc1 (stereo unspecified)
inactive: [10] 110 % of control | [11] 91 % of control | [12] 93 % of control

O=C(NNC(=O)c1ccccc1O)c1ccccc1
inactive: [5] 93 % of control | [6] 93 % of control | [7] 97 % of control

CCCCCCC(C)S(=O)(=O)c1ccc(C)cc1 (stereo unspecified)
inactive: [10] 87 % of control and 94 % of control | [11] 90 % of control and 91 % of control | [12] 94 % of control

C/C=C1/CN2CCC1CC2C(O)c1ccnc2ccc(O)cc12 (stereo unspecified)
inactive: [13] 101 % of control

COc1ccc(C(=O)NO)cc1
inactive: dose: 100.0 mg/kg/injection, schedule: Q01DX009 (ip), vehicle: carboxymethylcellulose (CMC) 96 % of control | dose: 200.0 mg/kg/injection, schedule: Q01DX009 (ip), vehicle: carboxymethylcellulose (CMC) 102 % of control | dose: 400.0 mg/kg/injection, schedule: Q01DX009 (ip), vehicle: carboxymethylcellulose (CMC) 101 % of control

CCCCCC/C(=C\c1ccc(O)cc1)C(=O)O
inactive: [1] 97 % of control | [2] 103 % of control | [3] 105 % of control | [4] 100 % of control

CC(C)C(=O)[O][Sn]([c]1ccccc1)([c]1ccccc1)[c]1ccccc1
inactive: [14] 97 % of control | [15] 93 % of control | [16] 93 % of control

CC(C)(C)NC(=O)CCC(CC(=O)NC(C)(C)C)C1([N+](=O)[O-])CCCCC1 (stereo unspecified)
inactive: [17] 92 % of control | [18] 91 % of control | [19] 86 % of control

O=C(O)C1C(Cl)C(Cl)C1C(=O)O (stereo unspecified)
inactive: [13] 104 % of control | dose: 150.0 mg/kg/injection, schedule: Q01DX001 (ip), vehicle: saline 101 % of control | dose: 300.0 mg/kg/injection, schedule: Q01DX001 (ip), vehicle: saline 96 % of control

O=C(NCCCCCCNC(=O)Nc1ccc(C2=NCCCN2)cc1)Nc1ccc(C2=NCCCN2)cc1
inactive: dose: 6.25 mg/kg/injection, schedule: Q01DX Z (ip), vehicle: carboxymethylcellulose (CMC) 97 % of control | dose: 12.5 mg/kg/injection, schedule: Q01DX Z (ip), vehicle: carboxymethylcellulose (CMC) 97 % of control | dose: 25.0 mg/kg/injection, schedule: Q01DX Z (ip), vehicle: carboxymethylcellulose (CMC) 100 % of control

COC1OC(CCl)C(OS(C)(=O)=O)C(OC(=O)c2ccccc2)C1OC(=O)c1ccccc1 (stereo unspecified)
inactive: [15] 102 % of control | [16] 97 % of control | dose: 100.0 mg/kg/injection, schedule: Q04DX002 (ip), vehicle: Klucel (hydroxypropylcellulose) (HPC) 102 % of control

COCCNC(=O)Nc1cccc2c1CCCC2
inactive: [20] 97 % of control | [21] 99 % of control | [22] 103 % of control

CC(=O)c1cccc([N+](=O)[O-])c1
inactive: dose: 100.0 mg/kg/injection, schedule: Q01DX009 (ip), vehicle: other 91 % of control | dose: 100.0 mg/kg/injection, schedule: Q04DX003 (ip), vehicle: other 102 % of control | [17] 105 % of control | dose: 200.0 mg/kg/injection, schedule: Q01DX009 (ip), vehicle: other 105 % of control | dose: 200.0 mg/kg/injection, schedule: Q04DX003 (ip), vehicle: other 100 % of control | [18] 106 % of control | dose: 400.0 mg/kg/injection, schedule: Q04DX003 (ip), vehicle: other 94 % of control | [19] 108 % of control

Oc1ccc(Cl)cc1C1N(Cc2ccc(N(CCCl)CCCl)cc2Cl)CCCN1Cc1ccc(N(CCCl)CCCl)cc1Cl
inactive: [1] 113 % of control | [2] 96 % of control | [3] 105 % of control | [4] 96 % of control

CCCCN(C(=O)OCC)P(=O)(OCC)OCC
inactive: [8] 95 % of control | [9] 109 % of control

CCCCCCCCCCC(N)C(=O)O (stereo unspecified)
inactive: [14] 104 % of control | [15] 91 % of control | [16] 88 % of control

Cc1ccc2c(c1)C(c1ccccc1)(c1ccccc1)OC2
inactive: [1] 101 % of control | [2] 95 % of control | [3] 89 % of control | [4] 101 % of control

CC(O)C1CCN(Cc2ccccc2)CC1 (stereo unspecified)
inactive: [1] 101 % of control | [2] 108 % of control | [3] 106 % of control

CCCCNC(=O)N(C1CCCCC1)C1CCCCC1
inactive: dose: 100.0 mg/kg/injection, schedule: Q01DX009 (ip), vehicle: Klucel (hydroxypropylcellulose) (HPC) 103 % of control | dose: 200.0 mg/kg/injection, schedule: Q01DX009 (ip), vehicle: Klucel (hydroxypropylcellulose) (HPC) 92 % of control | dose: 400.0 mg/kg/injection, schedule: Q01DX009 (ip), vehicle: Klucel (hydroxypropylcellulose) (HPC) 92 % of control

NC(=O)c1nc2n(c1N)CCC2
inactive: [20] 108 % of control | [17] 97 % of control | [21] 110 % of control | [18] 100 % of control | [22] 105 % of control | [19] 94 % of control

O=c1c2[nH]cnc2nnn1CCc1ccccc1
inactive: dose: 100.0 mg/kg/injection, schedule: Q01DX001 (ip), vehicle: other 94 % of control | dose: 200.0 mg/kg/injection, schedule: Q01DX001 (ip), vehicle: other 93 % of control | dose: 400.0 mg/kg/injection, schedule: Q01DX001 (ip), vehicle: other 91 % of control

N#Cc1ccc(-c2ccc(N)cc2)cc1
inactive: [1] 88 % of control | [2] 90 % of control | [3] 88 % of control | [4] 90 % of control

O=S(=O)(Nc1cc(S(=O)(=O)c2ccccc2)c(NS(=O)(=O)c2ccccc2)c(Cl)c1Cl)c1ccccc1
inactive: dose: 75.0 mg/kg/injection, schedule: Q04DX003 (ip), vehicle: Klucel (hydroxypropylcellulose) (HPC) 103 % of control | dose: 150.0 mg/kg/injection, schedule: Q04DX003 (ip), vehicle: Klucel (hydroxypropylcellulose) (HPC) 92 % of control | dose: 300.0 mg/kg/injection, schedule: Q04DX003 (ip), vehicle: Klucel (hydroxypropylcellulose) (HPC) 95 % of control

OC1(c2cccc(C(F)(F)F)c2)CCN(C2CC2)CC1
inactive: dose: 12.5 mg/kg/injection, schedule: Q04DX003 (ip), vehicle: Klucel (hydroxypropylcellulose) (HPC) 104 % of control | dose: 25.0 mg/kg/injection, schedule: Q04DX003 (ip), vehicle: Klucel (hydroxypropylcellulose) (HPC) 105 % of control | dose: 50.0 mg/kg/injection, schedule: Q04DX003 (ip), vehicle: Klucel (hydroxypropylcellulose) (HPC) 100 % of control

O=C(/C=C/c1ccccc1)c1ccc(Cl)c(Cl)c1
inactive: dose: 50.0 mg/kg/injection, schedule: Q01DX009 (ip), vehicle: saline with Tween-80 101 % of control | [20] 101 % of control | [21] 97 % of control

Nc1nc(N)c2nc(CNc3cccc4ccccc34)cnc2n1
inactive: dose: 10.0 mg/kg/injection, schedule: Q01DX009 (ip), vehicle: Klucel (hydroxypropylcellulose) (HPC) 102 % of control | dose: 20.0 mg/kg/injection, schedule: Q01DX009 (ip), vehicle: Klucel (hydroxypropylcellulose) (HPC) 102 % of control | dose: 40.0 mg/kg/injection, schedule: Q01DX009 (ip), vehicle: Klucel (hydroxypropylcellulose) (HPC) 100 % of control

O=c1[nH]nnc2nc(Cc3ccc([N+](=O)[O-])cc3)[nH]c12
inactive: dose: 100.0 mg/kg/injection, schedule: Q01DX001 (ip), vehicle: saline with Tween-80 98 % of control

Source: PubChem BioAssay AID248 (DTP/NCI, 2004)
